# Patent publication US4343816A, “Pharmaceutical composition comprising an acyl-carnitine, for treating peripheral vascular diseases” (priority 1979, dated 1982)
# Assay: in vivo
# Details: mouse, iv
# Description: As is known, carnitine contains an asymetrical carbon atom and consequently exists in two stereoisomer forms.
row,SMILES,LD50 [mg/kg]
1,CC(=O)CC(=O)OC(CC(=O)[O-])C[N+](C)(C)C (stereo not drawn) [acetoacetyl-carnitine],728
2,CC(=O)OC(CC(=O)[O-])C[N+](C)(C)C (stereo not drawn) [acetyl-carnitine],770
3,CC(O)CC(=O)OC(CC(=O)[O-])C[N+](C)(C)C (stereo not drawn) [hydroxybutyryl-carnitine],745
4,CC(C)CC(=O)OC(CC(=O)[O-])C[N+](C)(C)C (stereo not drawn) [isovaleryl-carnitine],743
5,C[N+](C)(C)CC(CC(=O)[O-])OC(=O)CCC(=O)O (stereo not drawn) [succinyl-carnitine],780

# Assay: Tolerance and toxicity (general statement)
# Details: racemic mixture or separated optically active forms, whatever the route of administration
row,SMILES,tolerance
1,CC(=O)OC(CC(=O)[O-])C[N+](C)(C)C (stereo not drawn) [acetyl-carnitine],excellent
